Measured values published in ChEMBL document CHEMBL1201862, “PubChem BioAssay data set” (2004).
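Where inhibition never reached the appropriate level, the endpoint shown equals the highest concentration tested. Otherwise, values were interpolated linearly from a five-concentration, 48-hour dose response in 96-well plates. Here, GI50 denotes the concentration required for 50% inhibition of growth.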 Activity calls are given as the source filed them. Rule as the data show it: active = GI50 up to about 1.1 µM and inactive = higher.

Assays:
Experiment in all cases: DTP human tumour cell line panel, 48 h
SW-620 = tested on: SW-620
NCI-H226 = tested on: NCI-H226
SK-MEL-2 = tested on: SK-MEL-2
OVCAR-3 = tested on: OVCAR-3
MCF7 = tested on: MCF7
RPMI-8226 = tested on: RPMI-8226
UACC-257 = tested on: UACC-257
NCI-H460 = tested on: NCI-H460
MDA-MB-231 = tested on: MDA-MB-231
SNB-75 = tested on: SNB-75
U-251 = tested on: U-251
SF-268 = tested on: SF-268
PC-3 = tested on: PC-3
UACC-62 = tested on: UACC-62
Hs-578T = tested on: Hs-578T
CCRF-CEM = tested on: CCRF-CEM
HOP-92 = tested on: HOP-92
NCI-H522 = tested on: NCI-H522
CAKI-1 = tested on: CAKI-1
TK-10 = tested on: TK-10
HCC 2998 = tested on: HCC 2998
OVCAR-5 = tested on: OVCAR-5
NCI-H23 = tested on: NCI-H23
Malme-3M = tested on: Malme-3M
SNB-19 = tested on: SNB-19
A498 = tested on: A498
COLO 205 = tested on: COLO 205
SF-539 = tested on: SF-539
A549 = tested on: A549
OVCAR-8 = tested on: OVCAR-8
MOLT-4 = tested on: MOLT-4
HL-60 = tested on: HL-60
MDA-MB-435 = tested on: MDA-MB-435
MDA-N = tested on: MDA-N
IGROV-1 = tested on: IGROV-1
EKVX = tested on: EKVX
HCT-116 = tested on: HCT-116
DU-145 = tested on: DU-145
SN12C = tested on: SN12C
HT-29 = tested on: HT-29
786-0 = tested on: 786-0
ACHN = tested on: ACHN
SK-OV-3 = tested on: SK-OV-3
SK-MEL-5 = tested on: SK-MEL-5
HOP-62 = tested on: HOP-62
K562 = tested on: K562
OVCAR-4 = tested on: OVCAR-4
BT-549 = tested on: BT-549
KM12 = tested on: KM12
M14 = tested on: M14
HCT-15 = tested on: HCT-15
SR = tested on: SR
SF-295 = tested on: SF-295
RXF 393 = tested on: RXF 393
UO-31 = tested on: UO-31
NCI/ADR-RES = tested on: NCI/ADR-RES
SK-MEL-28 = tested on: SK-MEL-28
LOX IMVI = tested on: LOX IMVI
T47D = tested on: T47D

Measured: GI50

N#Cc1c(O)cc(=O)n2c1[nH]c1ccccc12
inactive: SW-620 > 100 µM | NCI-H226 > 100 µM | SK-MEL-2 > 100 µM | OVCAR-3 > 100 µM | MCF7 > 100 µM | RPMI-8226 > 100 µM | UACC-257 > 100 µM | NCI-H460 > 100 µM | MDA-MB-231 > 100 µM | SNB-75 > 100 µM | U-251 > 100 µM | SF-268 > 100 µM | PC-3 > 100 µM | UACC-62 > 100 µM | Hs-578T > 100 µM | CCRF-CEM > 100 µM | HOP-92 > 100 µM | NCI-H522 > 100 µM | CAKI-1 > 100 µM | TK-10 > 100 µM | HCC 2998 > 100 µM | OVCAR-5 > 100 µM | NCI-H23 > 100 µM | Malme-3M > 100 µM | SNB-19 > 100 µM | A498 > 100 µM | COLO 205 > 100 µM | SF-539 > 100 µM | A549 > 100 µM | OVCAR-8 > 100 µM | MOLT-4 > 100 µM | HL-60 > 100 µM | MDA-MB-435 > 100 µM | MDA-N > 100 µM | IGROV-1 > 100 µM | EKVX > 100 µM | HCT-116 > 100 µM | DU-145 > 100 µM | SN12C > 100 µM | HT-29 > 100 µM | 786-0 > 100 µM | ACHN > 100 µM | SK-OV-3 > 100 µM | SK-MEL-5 > 100 µM | HOP-62 > 100 µM | K562 > 100 µM | OVCAR-4 > 100 µM | BT-549 > 100 µM | KM12 > 100 µM | M14 > 100 µM | SR > 100 µM | SF-295 64 µM | RXF 393 > 100 µM | UO-31 > 100 µM | NCI/ADR-RES > 100 µM
> 100 µM: HCT-15

Cc1cn(C2CC(OC(c3ccccc3)(c3ccccc3)c3ccccc3)C(COC(c3ccccc3)(c3ccccc3)c3ccccc3)O2)c(=O)[nH]c1=O (centres undefined)
inactive: SW-620 90.4 µM | NCI-H226 26.1 µM | SK-MEL-2 23.7 µM | OVCAR-3 > 100 µM | MCF7 19 µM | SK-MEL-28 36.8 µM | UACC-257 > 100 µM | NCI-H460 57.8 µM | MDA-MB-231 37.7 µM | SNB-75 58.7 µM | SF-268 99.8 µM | PC-3 16 µM | UACC-62 > 100 µM | Hs-578T 38.1 µM | CCRF-CEM > 100 µM | HOP-92 21.1 µM | CAKI-1 > 100 µM | TK-10 42.5 µM | HCC 2998 > 100 µM | OVCAR-5 53.1 µM | LOX IMVI 60 µM | Malme-3M 68.7 µM | SNB-19 11.7 µM | A498 25.4 µM | COLO 205 > 100 µM | SF-539 > 100 µM | A549 34.3 µM | OVCAR-8 > 100 µM | MOLT-4 29.4 µM | HL-60 53.1 µM | MDA-MB-435 26.2 µM | MDA-N 31.8 µM | IGROV-1 > 100 µM | EKVX 45.6 µM | HCT-116 17.1 µM | DU-145 > 100 µM | SN12C 53.6 µM | HT-29 61 µM | 786-0 > 100 µM | ACHN 68.4 µM | SK-OV-3 > 100 µM | SK-MEL-5 43.3 µM | HOP-62 > 100 µM | K562 38.6 µM | OVCAR-4 > 100 µM | BT-549 27.5 µM | KM12 31.3 µM | M14 > 100 µM | SR > 100 µM | SF-295 > 100 µM | RXF 393 30 µM | UO-31 45.6 µM | NCI/ADR-RES > 100 µM
59.2 µM: HCT-15

OC(c1ccco1)C(F)(F)c1nc2ccccc2o1 (centres undefined)
inactive: SW-620 > 100 µM | NCI-H226 > 100 µM | SK-MEL-2 > 100 µM | MCF7 41.1 µM | SK-MEL-28 > 100 µM | RPMI-8226 > 100 µM | UACC-257 > 100 µM | NCI-H460 > 100 µM | MDA-MB-231 > 100 µM | SNB-75 > 100 µM | U-251 > 100 µM | SF-268 > 100 µM | PC-3 > 100 µM | UACC-62 > 100 µM | Hs-578T > 100 µM | CCRF-CEM > 100 µM | HOP-92 > 100 µM | CAKI-1 > 100 µM | TK-10 > 100 µM | HCC 2998 > 100 µM | NCI-H23 > 100 µM | LOX IMVI > 100 µM | SNB-19 > 100 µM | A498 62.1 µM | COLO 205 > 100 µM | SF-539 > 100 µM | OVCAR-8 > 100 µM | MOLT-4 > 100 µM | HL-60 > 100 µM | T47D 61.5 µM | MDA-MB-435 > 100 µM | IGROV-1 > 100 µM | EKVX > 100 µM | HCT-116 > 100 µM | DU-145 > 100 µM | HT-29 > 100 µM | 786-0 > 100 µM | ACHN > 100 µM | SK-OV-3 68.4 µM | SK-MEL-5 > 100 µM | HOP-62 > 100 µM | K562 69.8 µM | OVCAR-4 > 100 µM | BT-549 > 100 µM | KM12 > 100 µM | M14 29.5 µM | SR > 100 µM | SF-295 56.8 µM | RXF 393 > 100 µM | UO-31 69.2 µM | NCI/ADR-RES > 100 µM
> 100 µM: HCT-15

CCCCCCOc1ccc(C(=O)NOCc2ccccc2)cc1
63.8 µM: HCT-15
inactive: SW-620 > 100 µM | NCI-H226 > 100 µM | SK-MEL-2 > 100 µM | OVCAR-3 > 100 µM | MCF7 > 100 µM | SK-MEL-28 > 100 µM | RPMI-8226 42.2 µM | UACC-257 > 100 µM | NCI-H460 > 100 µM | MDA-MB-231 > 100 µM | SNB-75 > 100 µM | U-251 > 100 µM | SF-268 > 100 µM | PC-3 > 100 µM | UACC-62 > 100 µM | Hs-578T > 100 µM | CCRF-CEM 90.2 µM | HOP-92 > 100 µM | NCI-H522 > 100 µM | CAKI-1 > 100 µM | TK-10 > 100 µM | HCC 2998 > 100 µM | OVCAR-5 > 100 µM | NCI-H23 > 100 µM | LOX IMVI > 100 µM | SNB-19 > 100 µM | A498 > 100 µM | COLO 205 > 100 µM | SF-539 > 100 µM | A549 > 100 µM | OVCAR-8 > 100 µM | MOLT-4 79.6 µM | HL-60 39.7 µM | MDA-MB-435 41.3 µM | MDA-N 45.8 µM | IGROV-1 > 100 µM | EKVX > 100 µM | HCT-116 > 100 µM | DU-145 > 100 µM | SN12C > 100 µM | HT-29 > 100 µM | 786-0 > 100 µM | ACHN > 100 µM | SK-OV-3 > 100 µM | SK-MEL-5 > 100 µM | HOP-62 > 100 µM | K562 35.6 µM | OVCAR-4 > 100 µM | BT-549 > 100 µM | KM12 > 100 µM | M14 > 100 µM | SR 18.5 µM | SF-295 > 100 µM | RXF 393 > 100 µM | UO-31 > 100 µM | NCI/ADR-RES > 100 µM
